This is an account of results in paper PMC10979105, “A simple method to resolve rate constants when the binding mechanism obeys induced fit or conformational selection” (The Journal of Biological Chemistry, 2024).

For assay [1], the target named is thrombin mutant S195A. Set-up: method as in PMID 29511224. As to conditions: fluorescence titration at equilibrium; 400 mM ChCl, 50 mM Tris, 0.1% PEG8000, pH 8, 15 °C; read-out: Kd,app; cited from earlier work.
Assay [2] deals with thrombin mutant S195A. Put plainly: Equilibrium titration of intrinsic fluorescence, FPR binding to thrombin. As to conditions: thrombin versus prethrombin-2. An excerpt: Figure 3 Binding of FPR to thrombin.A, rapid kinetics of FPR binding to thrombin showing the fast ( α1 ) and slow ( α2 ) relaxations defining a mechanism of binding consistent with IF or CS (see also Fig. 1A). Continuous lines depict Equations 3 and 4 in the original report ([30]) with best-fit parameter values of Equation 1 or Equation 2 listed in Table 2. […] The discontinuous line for the slow relaxation was drawn with the empirical expression [α(0)xm+α(∞)x]/(xm+x) , where x = [FPR], with best-fit parameters listed in Table 2. The discontinuous line for the fast relaxation was drawn using Equation 3 with the four independent rate constants obtained from application of Equation 11 (Table 2). […] The four independent rate constants derived from application of the method compare well with the values determined from application of Equations 3 and 4 in the original report ([30]). […]
The value of Kd,app is obtained from titration of intrinsic fluorescence at equilibrium (Figs. 2B and 3B) according to the expression(13) F(x)=F0Kd,app+F1x/Kd,app+x=F0(1−ϑ)+F1ϑ where ϑ=x/(Kd,app+x) is the fractional saturation (Figs. 1C, 2B and 3B). […] At each value of the ligand concentration, the change in absorbance from the initial ( t=0 ) to final ( t=∞ ) state gives the equilibrium reading equivalent to F(x) in Equation 13.

Another assay concerns the target prothrombin. Further details: method as in PMID 29511224. The settings on record: fluorescence titration at equilibrium; 400 mM ChCl, 50 mM Tris, 0.1% PEG8000, pH 8, 15 °C; read-out: Kd,app; cited from earlier work.
For assay [3], the target named is prethrombin-2 (S195A mutant). Further details: method as in PMID 29511224. As to conditions: fluorescence titration at equilibrium; 400 mM ChCl, 50 mM Tris, 0.1% PEG8000, pH 8, 15 °C; read-out: Kd,app; cited from earlier work.
Assay [4] concerns thrombin mutant S195A. Put plainly: Rapid kinetics (stopped-flow) of FPR binding to thrombin. From the text:
An important validation of the method is offered by application to a case where all rate constants have been determined from analysis of the two relaxations (Equations 3 and 4). In this case, one can assume no knowledge of the fast relaxation and consider only the slow relaxation and equilibrium titrations. We illustrate this point using FPR binding to the thrombin mutant S195A, inactivated at the catalytic S195 to prevent hydrolysis ([30]). Two relaxations were reported for this case, along with equilibrium titrations (Fig. 3, A and B). Analysis of the slow relaxation α2(x) yields α(0) = 0.60 ± 0.06 s^−1, α(∞) = 17 ± 2 s^−1, xm = 4.3 ± 0.4 μM, and α(xm) = 8.8 ± 0.9 s^−1 (Fig. 3A and Table 2). […] Interpretation of the binding mechanism in terms of CS gives k12 = 17 ± 2 s^−1 and koff = 0.60 ± 0.06 s^−1. Application of Equation 11 yields kon = 2.4 ± 0.2 μM^−1s^−1 and Equation 9 gives αˆ(0)=k12+k21 = 19 ± 2 s^−1 from which a value of k21 = 2.0 ± 0.2 s^−1 can be obtained (Table 2). These values are in excellent agreement with the ones reported originally from analysis of the two independent relaxations (Table 2) ([30]). When used in Equation 3 to predict the dependence of the fast relaxation α1(x) on [FPR], the curve (discontinuous line) deviates little from experimental data (Fig. 3A, top portion of the panel). Values derived from analysis of the two relaxations are obviously more rigorous and should be preferred when available, but the accuracy of values obtained by application of the method based on Equation 11 is noteworthy. The discrepancies in Table 2 between values of k21 for CS or koff and k32 for IF are small and the fast relaxation ( α1 in Fig. 3A) predicted from knowledge of a single, saturable relaxation ( α2 in Fig. 3A), and equilibrium binding measurements (Fig. 3B) is in excellent agreement with experimental data.
Figure 3 Binding of FPR to thrombin.A, rapid kinetics of FPR binding to thrombin showing the fast ( α1 ) and slow ( α2 ) relaxations defining a mechanism of binding consistent with IF or CS (see also Fig. 1A). Continuous lines depict Equations 3 and 4 in the original report ([30]) with best-fit parameter values of Equation 1 or Equation 2 listed in Table 2. […] The discontinuous line for the slow relaxation was drawn with the empirical expression [α(0)xm+α(∞)x]/(xm+x) , where x = [FPR], with best-fit parameters listed in Table 2. The discontinuous line for the fast relaxation was drawn using Equation 3 with the four independent rate constants obtained from application of Equation 11 (Table 2). The predicted fast relaxation (discontinuous line) approximates quite well the actual experimental data and lends confidence to the validity of the method. B, fractional saturation of FPR binding to thrombin. […] This value, together with the parameters derived from analysis of the slow relaxation in panel A, allows for derivation of the value of kon from Equation 11. The four independent rate constants derived from application of the method compare well with the values determined from application of Equations 3 and 4 in the original report ([30]). Data in panels A and B were taken from ([30]) and were obtained under the following experimental conditions: 400 mM ChCl, 50 mM Tris, 0.1% PEG8000, pH 8, at 15 °C. CS, conformational selection; FPR, H-D-Phe-Pro-Arg-p-nitroanilide; IF, induced fit.
The data analyzed in this study, that is, FPR binding to prethrombin-2, prothrombin, and thrombin (Figs. 2, A and B and 3, A and B) were taken from ([30]) without modification. The methodology used to produce the recombinant proteins, measure FPR binding by stopped-flow or equilibrium titrations is reported in ([30]) and references therein. Values of the slow relaxation α(x) (Fig. 1, A and B, 2A and 3A) are measured by stopped-slow as a function of the ligand concentration and derived from fit of the time evolution of the interaction according to the expression ([1])(12) A(x,t)=A0(x)+A1(x)exp{−α(x)t}

Assay [5] has as its system thrombin mutant S195A. Set-up: method as in PMID 29511224. The settings on record: CS; from analysis of two relaxations; cited from earlier work.
Setting [6] is: model independent, 400 mM ChCl, 50 mM Tris, 0.1% PEG8000, pH 8, 15 °C, fit of data from ref 30.
Where [7] appears, read: model independent, pH 8, 15 °C, fit of data from ref 30.

Each structure is given as a SMILES string. Read-outs that look alike come from different tables or passages of the source. Some results are limits rather than exact numbers.

With `N=C(N)NCCC[C@H](NC(=O)[C@@H]1CCCN1C(=O)[C@H](N)Cc1ccccc1)C(=O)Nc1ccc([N+](=O)[O-])cc1` [FPR, H-D-Phe-Pro-Arg-p-nitroanilide], the Kd at thrombin mutant S195A [1] is 0.28 ± 0.02 µM. The “difference in equilibrium binding affinity between prethrombin-2 and thrombin” value with thrombin mutant S195A [2] is greater than 100 fold. Moreover, the Kd on prothrombin was 195 ± 20 µM. Besides, the Kd in assay [3] is 37 ± 4 µM. For the same molecule, the “αˆ(0)=k12+k21” value in the assay on thrombin mutant S195A [4] (CS, from Equation 9) is 19 ± 2 s⁻¹. In the assay on thrombin mutant S195A [4] (CS, method of this paper), the k12 stood at 17 ± 2 s⁻¹, the k21 came to 2.0 ± 0.2 s⁻¹ and the koffCS came to 0.60 ± 0.06 s⁻¹. Moreover, the konCS in the assay on thrombin mutant S195A [4] (CS, method of this paper (Equation 11)) amounted to 2.4e+06 ± 200000 M⁻¹ s⁻¹. Besides, in the assay on thrombin mutant S195A [4] (IF, method of this paper), the k23 is listed as 13 ± 1 (13 ± 1) s^−1, the k32 stood at 4.4 ± 0.4 s⁻¹, the koffIF stood at 2.6 ± 0.3 s⁻¹ and the konIF was determined as 2.4e+06 ± 200000 M⁻¹ s⁻¹. In the assay on thrombin mutant S195A [4] (model independent, derived from Equation 11), this molecule displayed an on-rate (kon) of 2.4e+06 ± 200000 M⁻¹ s⁻¹. In the assay with thrombin mutant S195A [4] (setting [6]), the “α(0), lower asymptote of slow relaxation” value stood at 0.60 ± 0.06 s⁻¹ and the “α(∞), asymptote of slow relaxation” value came to 17 ± 2 s⁻¹. Besides, in the assay with thrombin mutant S195A [4] (setting [7]), the “xm, midpoint of the slow relaxation” value turned out to be 4.3 ± 0.4 µM and the “α(xm), slow relaxation at midpoint” value was 8.8 ± 0.9 s⁻¹. In addition, in the assay on thrombin mutant S195A [5], the k12 is 16 ± 1 s⁻¹, the k21 is 3.8 ± 0.8 s⁻¹, the koffCS is 0.6 ± 0.1 s⁻¹ and the konCS is 2.6e+06 ± 300000 M⁻¹ s⁻¹.
